“And” between values parts separate entries of the source, which are not always exact repeats. Equal entries are not always repeated.
Key:
Apis mellifera = settings: acute, mortality
Folsomia candida = settings: chronic/long-term; duration: 28 days; reproduction
Oncorhynchus mykiss = settings: acute; duration: 96 hours; mortality
Canidae = settings: oral, Dog Other, hematological
Neomysis kadiakensis = settings: chronic/long-term; duration: 28 days; reproduction
Pimephales promelas = settings: chronic/long-term; duration: 28 days
Colinus virginianus = settings: for LD50: acute, oral, mortality
Aphidius rhopalosiphi = experiment: LR50; higher = less toxic; settings: acute; mortality

COC(=O)N(C(=O)N1CO[C@@]2(C(=O)OC)Cc3cc(Cl)ccc3C2=N1)c1ccc(OC(F)(F)F)cc1 [Indoxacarb]
LD50 (Apis mellifera; dermal): 0.0682 µg/piece | LD50 (Apis mellifera; oral, unspecified): 0.232 µg/piece | NOEC (Folsomia candida): 1 mg/kg | LC50 (Oncorhynchus mykiss): > 0.17 µg/mL | LOAEL (Canidae; chronic, duration: 1 years): 1.1 mg/kg-day | LOAEL (Canidae; subchronic, duration: 90 days): 1 mg/kg-day | LD50 (Rattus norvegicus; acute, oral, mortality): 146 mg/kg-day | NOAEL (Rattus norvegicus; chronic): 0.6 mg/kg-day | NOAEL (Rattus norvegicus; chronic, duration: 2 years, hematological): 1.04 mg/kg-day | NOAEL (Rattus norvegicus; reproduction developmental, body weight): 0.5 mg/kg-day | NOAEL (Rattus norvegicus; subchronic, duration: 90 days, oral, hematological): 0.68 mg/kg-day and 0.99 mg/kg-day | NOAEL (Rattus norvegicus; subchronic, oral, hematological): 0.76 mg/kg-day | NOEC (Neomysis kadiakensis): 0.0138 mg/L | NOEC (Pimephales promelas): 0.0675 mg/L | LD50 (Colinus virginianus): 73.5 mg/kg-day | NOAEL (Colinus virginianus; reproduction developmental): 56.8 mg/kg-day | LR50 (Aphidius rhopalosiphi): 5.1 g/ha

COC(=O)[C@@]12Cc3cc(Cl)ccc3C1=NN(C(=O)Nc1ccc(OC(F)(F)F)cc1)CO2
LC50 (Rattus norvegicus; acute, M, mortality): 52 mg/kg | LD50 (Rattus norvegicus; acute, oral, F, mortality): 39 mg/kg | LD50 (Colinus virginianus): 1750 mg/kg
